Activity calls are given as the source filed them.
How the values were obtained:
Leucine aminopeptidase = Leucine aminopeptidase (Plasmodium falciparum 3D7, UniProt Q8IL11); test: P. falciparum M17LAP inhibitors, primary screen, biochemical, fluorogenic H-Leu-NHMec substrate, 1536-well (AID 1619); type: functional
[1] = A cytotoxicity screen of small molecule inhibitors of the PhoP region in Salmonella typhi identified in the primary screen. [Related pubchem assays: 1850, 1864, 1985 ]; type: functional
Protein Rev = Protein Rev (Human immunodeficiency virus type 1 group M subtype B (isolate WMJ22)(HIV-1), UniProt P05866); test: HIV-1 Rev-RRE RNA binding disruptors, dose response, biochemical, protein-RNA interaction (AID 842); design: species or system Human immunodeficiency virus 1
Sequence of Protein Rev (P05866 whole entry): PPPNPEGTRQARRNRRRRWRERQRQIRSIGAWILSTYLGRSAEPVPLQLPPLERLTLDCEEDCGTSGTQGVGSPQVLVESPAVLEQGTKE

HEK293 = test: Fluorescence-based counterscreen for potentiators or agonists of NPY-Y2: cell-based high-throughput dose response assay to identify inhibitors of cyclic nucleotide gated ion channel (CNGC) activity. In this assay, the parental HEK293 cell line transfected with a cyclic-nucleotide gated ion channel (CNGC)-based cAMP sensor is used to measure inhibition of isoproterenol-induced CNGC activity by test compound.; type: functional; conditions: Homo sapiens;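 also: stimulus is 1 µM isoproterenol at EC100 plus PDE inhibitor Ro 20-1724 at 25 µM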
[2] = target: T1, Neuropeptide Y receptor type 1 (Homo sapiens, UniProt P25929); test: Fluorescence-based counterscreen for agonists of NPY-Y2: cell-based high-throughput dose response assay for agonists of NPY-Y1.; type: functional
T1 sequence (P25929 whole entry): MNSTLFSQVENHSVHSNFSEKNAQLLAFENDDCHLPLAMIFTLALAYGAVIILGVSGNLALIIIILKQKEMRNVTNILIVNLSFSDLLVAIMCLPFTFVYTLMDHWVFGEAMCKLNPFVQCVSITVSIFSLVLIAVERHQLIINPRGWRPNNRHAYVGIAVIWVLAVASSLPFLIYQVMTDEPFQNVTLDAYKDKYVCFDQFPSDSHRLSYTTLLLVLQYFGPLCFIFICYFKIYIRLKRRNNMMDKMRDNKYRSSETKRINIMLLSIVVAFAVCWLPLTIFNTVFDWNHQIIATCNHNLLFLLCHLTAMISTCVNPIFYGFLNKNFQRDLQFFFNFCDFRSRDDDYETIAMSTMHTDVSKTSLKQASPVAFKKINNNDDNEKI

[3] = target: T2, Neuropeptide Y receptor type 2 (Homo sapiens, UniProt P49146); test: Fluorescence-based cell-based high-throughput dose response assay for agonists of NPY-Y2. [Related pubchem assays: 1703 (Screening assay (CNGC inhibitors).), 1359 (Screening assay (NPY-Y2 potentiators or agonists).), 1304 (Screening assay (NPY-Y1 potentiators or agonists).), 1710 (Screening assay (NPY-Y2 agonists).), 1791 (Summary AID.)]; type: functional
T2 sequence (P49146 whole entry): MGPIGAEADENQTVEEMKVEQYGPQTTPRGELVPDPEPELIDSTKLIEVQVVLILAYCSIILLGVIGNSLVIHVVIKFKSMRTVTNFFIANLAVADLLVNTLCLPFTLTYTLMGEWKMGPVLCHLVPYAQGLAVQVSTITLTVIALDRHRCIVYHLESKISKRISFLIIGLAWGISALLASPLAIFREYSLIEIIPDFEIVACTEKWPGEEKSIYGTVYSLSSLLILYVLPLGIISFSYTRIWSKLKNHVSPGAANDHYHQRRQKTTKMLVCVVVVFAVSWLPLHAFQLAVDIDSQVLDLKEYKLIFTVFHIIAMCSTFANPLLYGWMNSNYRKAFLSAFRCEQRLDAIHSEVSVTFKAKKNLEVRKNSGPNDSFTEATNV

[4] = target: Lysosomal acid glucosylceramidase (Homo sapiens, UniProt P04062); test: Dose response cell-based high throughput screening assay to identify enhancers of beta-glucosidase activity. [Related pubchem assays: 784 ]; type: functional
Sequence of Lysosomal acid glucosylceramidase (P04062 whole entry): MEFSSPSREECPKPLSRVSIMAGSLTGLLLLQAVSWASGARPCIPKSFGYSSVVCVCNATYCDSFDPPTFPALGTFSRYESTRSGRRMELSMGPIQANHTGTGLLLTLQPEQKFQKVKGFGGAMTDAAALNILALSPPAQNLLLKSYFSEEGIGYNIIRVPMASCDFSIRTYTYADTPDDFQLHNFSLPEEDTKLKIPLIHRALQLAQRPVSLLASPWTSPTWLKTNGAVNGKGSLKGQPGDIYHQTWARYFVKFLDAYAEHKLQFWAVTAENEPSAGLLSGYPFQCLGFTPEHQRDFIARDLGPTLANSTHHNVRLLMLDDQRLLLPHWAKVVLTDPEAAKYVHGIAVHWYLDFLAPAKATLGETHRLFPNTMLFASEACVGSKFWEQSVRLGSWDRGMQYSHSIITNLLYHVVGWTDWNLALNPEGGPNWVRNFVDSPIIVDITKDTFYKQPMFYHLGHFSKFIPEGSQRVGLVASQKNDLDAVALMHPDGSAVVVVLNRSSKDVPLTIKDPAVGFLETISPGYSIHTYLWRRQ

[5] = target: Acyl-homoserine lactone acylase PvdQ (Pseudomonas aeruginosa (strain LESB58), UniProt Q9I194); test: P. aeruginosa PvdQ acylase inhibitors, dose response, biochemical, fluorescence, plate reader and imaging, cherry-picks (AID 493231)
Sequence of Acyl-homoserine lactone acylase PvdQ (Q9I194 24-193 limits assumed): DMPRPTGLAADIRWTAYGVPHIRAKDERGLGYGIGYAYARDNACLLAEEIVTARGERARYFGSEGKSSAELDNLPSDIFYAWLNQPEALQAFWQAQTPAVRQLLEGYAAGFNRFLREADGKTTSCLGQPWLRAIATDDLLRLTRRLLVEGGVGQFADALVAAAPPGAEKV
Sequence of Acyl-homoserine lactone acylase PvdQ (Q9I194 217-762 limits assumed): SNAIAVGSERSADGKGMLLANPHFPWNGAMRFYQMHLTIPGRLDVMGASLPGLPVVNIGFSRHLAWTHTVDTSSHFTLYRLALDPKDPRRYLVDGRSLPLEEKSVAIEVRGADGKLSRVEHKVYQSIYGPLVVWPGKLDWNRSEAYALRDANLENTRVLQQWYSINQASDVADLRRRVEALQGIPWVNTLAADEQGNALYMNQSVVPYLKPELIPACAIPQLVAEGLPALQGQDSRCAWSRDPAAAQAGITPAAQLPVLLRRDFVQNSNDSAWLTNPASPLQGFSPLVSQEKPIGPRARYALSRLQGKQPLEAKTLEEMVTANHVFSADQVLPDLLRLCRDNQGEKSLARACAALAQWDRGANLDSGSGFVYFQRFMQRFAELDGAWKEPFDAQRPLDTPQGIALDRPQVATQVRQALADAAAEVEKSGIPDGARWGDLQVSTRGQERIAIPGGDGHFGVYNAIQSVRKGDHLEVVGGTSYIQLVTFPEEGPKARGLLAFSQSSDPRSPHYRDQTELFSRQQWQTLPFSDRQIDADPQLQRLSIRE

NADPH oxidase 1 = NADPH oxidase 1 (Homo sapiens, UniProt Q9Y5S8); type: functional, cell-based;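 also: Cell-based assay with luminescence read-out, IC50 derived from inhibitor dose-response curves; intracellular ROS from endogenous NOX1 in intact HT29 colon cancer cells; potency of inhibitors that lower the ROS luminescence signal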
Sequence of NADPH oxidase 1 (Q9Y5S8 whole entry): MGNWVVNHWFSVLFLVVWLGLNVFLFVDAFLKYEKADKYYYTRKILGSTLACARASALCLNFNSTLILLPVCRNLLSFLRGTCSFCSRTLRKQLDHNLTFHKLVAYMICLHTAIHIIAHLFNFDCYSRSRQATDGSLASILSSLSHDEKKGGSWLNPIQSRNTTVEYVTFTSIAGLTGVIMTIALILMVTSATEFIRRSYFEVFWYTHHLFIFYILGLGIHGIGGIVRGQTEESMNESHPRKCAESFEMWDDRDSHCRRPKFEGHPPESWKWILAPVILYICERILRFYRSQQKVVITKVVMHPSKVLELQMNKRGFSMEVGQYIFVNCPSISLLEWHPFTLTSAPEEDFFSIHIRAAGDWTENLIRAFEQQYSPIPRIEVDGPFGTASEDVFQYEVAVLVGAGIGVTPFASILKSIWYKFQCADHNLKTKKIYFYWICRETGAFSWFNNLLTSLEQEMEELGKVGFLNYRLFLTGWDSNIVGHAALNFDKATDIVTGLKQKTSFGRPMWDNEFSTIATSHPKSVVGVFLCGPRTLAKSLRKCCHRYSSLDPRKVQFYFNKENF

Sequence of Leucine aminopeptidase (Q8IL11 whole entry): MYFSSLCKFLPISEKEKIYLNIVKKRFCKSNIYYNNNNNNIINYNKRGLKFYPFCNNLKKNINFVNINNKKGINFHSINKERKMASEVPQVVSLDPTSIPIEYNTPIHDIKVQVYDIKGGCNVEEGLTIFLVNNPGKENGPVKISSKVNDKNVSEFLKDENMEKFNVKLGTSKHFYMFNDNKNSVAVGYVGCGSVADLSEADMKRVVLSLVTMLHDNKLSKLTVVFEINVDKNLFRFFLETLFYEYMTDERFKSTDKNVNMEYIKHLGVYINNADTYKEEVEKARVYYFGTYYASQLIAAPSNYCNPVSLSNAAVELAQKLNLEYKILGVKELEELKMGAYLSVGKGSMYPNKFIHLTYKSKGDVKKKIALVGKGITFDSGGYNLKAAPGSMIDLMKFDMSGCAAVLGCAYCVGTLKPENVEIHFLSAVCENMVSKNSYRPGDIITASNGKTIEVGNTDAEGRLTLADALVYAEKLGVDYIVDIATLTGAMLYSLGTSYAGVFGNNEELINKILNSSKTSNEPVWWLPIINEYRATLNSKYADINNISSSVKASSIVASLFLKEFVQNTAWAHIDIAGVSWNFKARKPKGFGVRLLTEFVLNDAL

COc1ccc(NC(=O)Nc2ccc(C(=O)N3CCOCC3)cc2)cc1
IC50 (Leucine aminopeptidase): 31.6 µM (active)

CC(C)(C)n1nc2c(c1NC(=O)c1ccccc1)CS(=O)(=O)C2
EC50 [1]: > 50 µM (active)

O=C(CN1C2=NCCN2c2ccccc21)c1ccc(Br)cc1
IC50 (Protein Rev): > 79.4 µM (not active)

C=CCc1ccccc1OCC(O)CN1CCN(c2ccc(C)cc2)CC1 (centres undefined)
EC50 (HEK293): 1.78 µM (active)
EC50 [2]: 8.5 µM (active)
EC50 [3]: 14.8 µM (not active)

Cc1ccc(-n2c(=O)c(C#N)cc3c(=O)n4ccccc4nc32)cc1
EC50 [4]: > 50 µM (not active)

Clc1ccc2scc(CN3CCCC3)c2c1
AC50 [5]: 2.66 µM (active)

CN(C)c1ccc(-c2nc(-c3ccccc3)c(-c3ccccc3)[nH]2)cc1
IC50 (NADPH oxidase 1): 7.95 µM (active)

Source: ChEMBL document CHEMBL1201862, “PubChem BioAssay data set” (2004)
